Experiment [1] in a line: Induction of Pro-apoptosis in human HL-60 cells assessed as increase in apoptotic cells at 20 uM after 48 hrs by TMRM dye based flow cytometric analysis. It counts as functional.
Experiment [2] can be described thus: Induction of Pro-apoptosis in human HL-60 cells assessed as increase in apoptotic cells at 50 uM after 48 hrs by TMRM dye based flow cytometric analysis. It counts as functional. (A flow cytometer gives signals particle by particle.)

Among the data in ChEMBL document CHEMBL5154824, “Design and synthesis of multifunctional microtubule targeting agents endowed with dual pro-apoptotic and anti-autophagic efficacy” (Eur J Med Chem, 2022) are Activity values, retold here.

As to `CC(=O)OC1=C(c2cccc3ccccc23)Oc2ccc(N3CCN(C(C)=O)CC3)cc2-n2cccc21`, the Activity is less than 30% in experiment [1] and “>=70%” in experiment [2].
